Key:
Format in all cases: in vivo
[1] = test system: pigweed (Amaranthus retroflexus); assay: Test A pre-/postemergence plant response
Source text: (§1) Seeds of species selected from barnyardgrass (Echinochloa crus-galli), large crabgrass (Digitaria sanguinalis), giant foxtail (Setaria faberi), blackgrass (Alopecurus myosuroides), canarygrass (Phalaris minor), morningglory (Ipomoea coccinea), pigweed (Amaranthus retroflexus), velvetleaf (Abutilon theophrasti), wheat (Triticum aestivum), and corn (Zea mays) were planted into a blend of loam soil and sand and treated preemergence with a directed soil spray using test chemicals formulated in a non-phytotoxic solvent mixture which included a surfactant. At the same time these species were also treated with postemergence applications of test chemicals formulated in the same manner.
(§2) Plants ranged in height from 2 to 10 cm and were in the one- to two-leaf stage for the postemergence treatment. Treated plants and untreated controls were maintained in a greenhouse for approximately 10 days, after which time all treated plants were compared to untreated controls and visually evaluated for injury. Plant response ratings, summarized in Table A, are based on a 0 to 100 scale where 0 is no effect and 100 is complete control. A dash (-) response means no test results.

[2] = test system: wheat (Triticum aestivum); assay: Test A pre-/postemergence plant response
Source text: as §1, §2

corn (Zea mays) = assay: Test A pre-/postemergence plant response
Source text: as §1, §2

[3] = test system: velvetleaf (Abutilon theophrasti); assay: Test A pre-/postemergence plant response
Source text: as §1, §2

[4] = test system: morningglory (Ipomoea coccinea); assay: Test A pre-/postemergence plant response
Source text: as §1, §2

[5] = test system: giant foxtail (Setaria faberi); assay: Test A pre-/postemergence plant response
Source text: as §1, §2

[6] = test system: barnyardgrass (Echinochloa crus-galli); assay: Test A pre-/postemergence plant response
Source text: as §1, §2

[7] = test system: large crabgrass (Digitaria sanguinalis); assay: Test A pre-/postemergence plant response
Source text: as §1, §2

[8] = test system: ducksalad (Heteranthera limosa); assay: Test B flooded paddy test plant response; conditions: Flood (flooded paddy test), scale 0 to 100, 0 no effect, 100 complete control
Source text: (§3) Plant species in the flooded paddy test consisted of rice (Oryza sativa), umbrella sedge (Cyperus difformis), ducksalad (Heteranthera limosa) and barnyardgrass (Echinochloa crus-galli) grown to the 2-leaf stage for testing. At time of treatment, test pots were flooded to 3 cm above the soil surface, treated by application of test compounds directly to the paddy water, and then maintained at that water depth for the duration of the test. Treated plants and controls were maintained in a greenhouse for 13 to 15 days, after which time all species were compared to controls and visually evaluated. Plant response ratings, summarized in Table B, are based on a scale of 0 to 100 where 0 is no effect and 100 is complete control. A dash (-) response means no test result.

[9] = test system: barnyardgrass (Echinochloa crus-galli); assay: Test B flooded paddy test plant response; conditions: Flood (flooded paddy test), scale 0 to 100, 0 no effect, 100 complete control
Source text: as §3

[10] = test system: umbrella sedge (Cyperus difformis); assay: Test B flooded paddy test plant response; conditions: Flood (flooded paddy test), scale 0 to 100, 0 no effect, 100 complete control
Source text: as §3

rice (Oryza sativa) = assay: Test B flooded paddy test plant response; conditions: Flood (flooded paddy test), scale 0 to 100, 0 no effect, 100 complete control
Source text: as §3

[11] = Postemergence, 125 g ai/ha, 0 to 100 scale, 0 no effect, 100 complete control
[12] = Postemergence, 500 g ai/ha, 0 to 100 scale, 0 no effect, 100 complete control
[13] = Preemergence, 125 g ai/ha, 0 to 100 scale (0 no effect, 100 complete control)
[14] = Preemergence, 500 g ai/ha, 0 to 100 scale (0 no effect, 100 complete control)
[15] = Postemergence, 31 g ai/ha, 0 to 100 scale, 0 no effect, 100 complete control
[16] = Preemergence, 31 g ai/ha, 0 to 100 scale, 0 is no effect, 100 is complete control

SMILES | Plant response rating, Pigweed [1, 11] | Plant response rating, Pigweed [1, 13] | Plant response rating, Wheat [2, 11] | Plant response rating, Wheat [2, 13] | Plant response rating, Corn (corn (Zea mays); [11]) | Plant response rating, Corn (corn (Zea mays); [13]) | Plant response rating, Velvetleaf [3, 11] | Plant response rating, Velvetleaf [3, 13] | Plant response rating, Morningglory [4, 11] | Plant response rating, Morningglory [4, 13] | Plant response rating, Foxtail, Giant [5, 11] | Plant response rating, Foxtail, Giant [5, 13] | Plant response rating, Barnyardgrass [6, 11] | Plant response rating, Barnyardgrass [6, 13] | Plant response rating, Crabgrass, Large [7, 11] | Plant response rating, Crabgrass, Large [7, 13] | Plant response rating, Ducksalad ([8]; 62 g ai/ha) | Plant response rating, Ducksalad ([8]; 250 g ai/ha) | Plant response rating, Barnyardgrass ([9]; 62 g ai/ha) | Plant response rating, Barnyardgrass ([9]; 250 g ai/ha) | other results
Cc1cc(-n2cc(Cl)cn2)ccc1-c1c(O)cnn(C)c1=O [Compound 60] | 0 | 0 | 0 | 0 | 40 | 50 | 0 | 0 | 0 | 0 | 50 | 80 | 30 | 70 | 20 | 20 | 0 | 0 | 0 | 30 | Plant response rating, Pigweed [1, 12]: 0; Plant response rating, Pigweed [1, 14]: 0; Plant response rating, Wheat [2, 12]: 50; Plant response rating, Wheat [2, 14]: 50; Plant response rating, Corn (corn (Zea mays); [12]): 90; Plant response rating, Corn (corn (Zea mays); [14]): 90; Plant response rating, Velvetleaf [3, 12]: 0; Plant response rating, Velvetleaf [3, 14]: 0; Plant response rating, Morningglory [4, 12]: 0; Plant response rating, Morningglory [4, 14]: 0; Plant response rating, Foxtail, Giant [5, 12]: 80; Plant response rating, Foxtail, Giant [5, 14]: 100; Plant response rating, Barnyardgrass [6, 12]: 90; Plant response rating, Barnyardgrass [6, 14]: 100; Plant response rating, Crabgrass, Large [7, 12]: 60; Plant response rating, Crabgrass, Large [7, 14]: 80; Plant response rating, Sedge, Umbrella ([10]; 62 g ai/ha): 0; Plant response rating, Sedge, Umbrella ([10]; 250 g ai/ha): 0; Plant response rating, Rice (rice (Oryza sativa); 62 g ai/ha): 0; Plant response rating, Rice (rice (Oryza sativa); 250 g ai/ha): 30
Cc1cc(-c2ccc(Cl)cc2)nn1-c1c(OC(=O)N(C)C)cnn(C)c1=O [Compound 64] | 0 | 0 | 0 | 0 | 60 | 30 | 0 | 0 | 0 | 0 | 80 | 50 | 10 | 0 | 40 | 50 | 0 | 0 | 0 | 0 | Plant response rating, Pigweed [1, 15]: 0; Plant response rating, Pigweed [1, 16]: 0; Plant response rating, Wheat [2, 15]: 0; Plant response rating, Wheat [2, 16]: 0; Plant response rating, Corn (corn (Zea mays); [15]): 0; Plant response rating, Corn (corn (Zea mays); [16]): 0; Plant response rating, Velvetleaf [3, 15]: 0; Plant response rating, Velvetleaf [3, 16]: 0; Plant response rating, Morningglory [4, 15]: 0; Plant response rating, Morningglory [4, 16]: 0; Plant response rating, Foxtail, Giant [5, 15]: 30; Plant response rating, Foxtail, Giant [5, 16]: 0; Plant response rating, Barnyardgrass [6, 15]: 0; Plant response rating, Barnyardgrass [6, 16]: 0; Plant response rating, Crabgrass, Large [7, 15]: 0; Plant response rating, Crabgrass, Large [7, 16]: 0; Plant response rating, Sedge, Umbrella ([10]; 62 g ai/ha): 0; Plant response rating, Sedge, Umbrella ([10]; 250 g ai/ha): 0; Plant response rating, Rice (rice (Oryza sativa); 62 g ai/ha): 0; Plant response rating, Rice (rice (Oryza sativa); 250 g ai/ha): 0

From US20100267561A1, “HERBICIDAL PYRIDAZINONE DERIVATIVES” (priority 2007, published 2010)
